According to patent US6541517B1, “Treatment of skin disorders” (priority 1999, dated 2003):

How the values were obtained:
[1] = water, alcohol, ether and chloroform; cited from earlier work
[2] = Federal Register, vol. 47, 12553 (Mar. 23, 1982); cited from earlier work
[3] = tested on: patients who presented with psoriatic lesions; test: Topical treatment of psoriasis in outpatients; type: in vivo, human; details: applied as a topical, episodic treatment for psoriasis
Method: Eight patients who presented with psoriatic lesions were treated with the ointment of Example 1 on an outpatient basis. The ointment of Example 1 was applied to the psoriatic lesions up to four times per day.

SMILES	miscibility [1]	safety for topical use [2]	effect on psoriatic lesions [3]
CC(=O)OCC(COC(C)=O)OC(C)=O [Triacetin, 1,2,3-propanetriol triacetate]	miscible in water, alcohol, ether and chloroform	safe for topical use	improve psoriatic lesions
CC(=O)OCC(CO)OC(C)=O (centres unmarked) [diacetin, glycerol diacetate]	miscible in water, alcohol, ether and chloroform		
CC(=O)OCC(O)CO (centres unmarked) [monacetin, glycerol monoacetate]	miscible in water, alcohol, ether and chloroform		
